According to patent US20110034472A1, “Novel Compounds for Treatment of Cancer and Disorders Associated With Angiogenesis Function” (UNIVERSITY OF SOUTHERN CALIFORNIA, priority 2004, published 2011):

Test system: T24 bladder cancer cell lines
Experiment: StaRT-PCR gene expression, SC23
Format: cell-based, human
Protocol: FIG. 21 illustrates RT-PCR gene expression analysis. Total RNA form T24 cells was isolated and cDNA was synthesized with 2.5 ug of total RNA. Standardized RT-PCR was performed with GENE system I gene expression kit (Gene Express Inc.). Each kit contains a mixture of the internal competitive templates and the corresponding primers.
Total RNA form T24 cells were isolated after 3h, Oh, 12h, 24h, and 48h exposure to SC23.
StaRT-PCR™ (Standardized Reverse Transcription Polymerase Chain Reaction). First described by Willey et al. ((2004) Methods Mol. Biol. 258:13-41), this technique uses standardized mixtures of competitive templates (CT) as internal standards in generating valid and reproducible numerical gene expression data for multiple genes. After the mRNA was converted to cDNA, the cDNA was mixed with a proprietary Standardized Mixture of Internal Standards™ (SMIS™, GeneExpress, Inc.). In the standard mixture, there is an internal standard CT for each gene to be measured as well as one for a reference gene. (i.e., β-actin, GAPDH). The amplicons produced by StaRT-PCR™ was then separated on capillary electrophoresis. The amount of internal standard CT or NT amplimer was determined by measuring each peak area. All data were then reported as number of molecules of mRNA for gene of interest per 10^6 molecules of reference gene (normalizer gene). Serial dilutions of the SMIS™ allow quantitative measurements over 7 log range of gene expression observed in cells from <10 to 10^7 molecules/10^6 molecules reference gene. Data presented in Table 8 are number of copies that have been normalized against 10^6 molecule of β-actin.

CYP1A2 expression (3 hours): 59.45 molecules/10^6 β-actin
CYP1A2 expression (6 hours): 10 molecules/10^6 β-actin
CYP1A2 expression (12 hours): 69 molecules/10^6 β-actin
CYP1A2 expression (24 hours): 36.62 molecules/10^6 β-actin
CYP1A2 expression (48 hours): 37.48 molecules/10^6 β-actin
SMILES: O=C(NNC(O)c1cc2ccccc2cc1O)c1cc2ccccc2cc1O (stereo not shown) [SC23]
BCL2L1 expression (3 hours): 9449.42 molecules/10^6 β-actin
BCL2 expression (3 hours): 152.37 molecules/10^6 β-actin
CASP1 expression (3 hours): 68.36 molecules/10^6 β-actin
CCNA2 expression (3 hours): 126.84 molecules/10^6 β-actin
CCND3 expression (3 hours): 195.17 molecules/10^6 β-actin
CCNE1 expression (3 hours): 51.36 molecules/10^6 β-actin
CCNG1 expression (3 hours): 2956.79 molecules/10^6 β-actin
CDC2 expression (3 hours): 2365.6 molecules/10^6 β-actin
CDC25C expression (3 hours): 394.83 molecules/10^6 β-actin
CDK7 expression (3 hours): 1068.25 molecules/10^6 β-actin
CDK8 expression (3 hours): 412.64 molecules/10^6 β-actin
CDKN1A expression (3 hours): 11.42 molecules/10^6 β-actin
CDKN1B expression (3 hours): 72.37 molecules/10^6 β-actin
CDKN2A expression (3 hours): 415.63 molecules/10^6 β-actin
CDKN2C expression (3 hours): 458.41 molecules/10^6 β-actin
DAP expression (3 hours): 9037.57 molecules/10^6 β-actin
E2F4 expression (3 hours): 7540.97 molecules/10^6 β-actin
E2F5 expression (3 hours): 268.09 molecules/10^6 β-actin
JUN expression (3 hours): 1846.15 molecules/10^6 β-actin
MAD expression (3 hours): 496.75 molecules/10^6 β-actin
MAP3K14 expression (3 hours): 55.57 molecules/10^6 β-actin
MYC expression (3 hours): 974.69 molecules/10^6 β-actin
NFKB1 expression (3 hours): 2694.24 molecules/10^6 β-actin
PCNA expression (3 hours): 8574.58 molecules/10^6 β-actin
PTGS2 expression (3 hours): 82.69 molecules/10^6 β-actin
RB1 expression (3 hours): 7076.29 molecules/10^6 β-actin
RBL2 expression (3 hours): 1287.91 molecules/10^6 β-actin
TGFBR2 expression (3 hours): 1420.02 molecules/10^6 β-actin
TGIF expression (3 hours): 3112.84 molecules/10^6 β-actin
TNFAIP1 expression (3 hours): 4737.75 molecules/10^6 β-actin
TNFRSF1A expression (3 hours): 15.56 molecules/10^6 β-actin
TNFSF10 expression (3 hours): 82.86 molecules/10^6 β-actin
TP53 expression (3 hours): 567.53 molecules/10^6 β-actin
TRAF4 expression (3 hours): 69.06 molecules/10^6 β-actin
BCL2L1 expression (6 hours): 10428.62 molecules/10^6 β-actin
BCL2 expression (6 hours): 121.2 molecules/10^6 β-actin
CASP1 expression (6 hours): 80.87 molecules/10^6 β-actin
CCNA2 expression (6 hours): 348.88 molecules/10^6 β-actin
CCND3 expression (6 hours): 175.1 molecules/10^6 β-actin
CCNE1 expression (6 hours): 33.08 molecules/10^6 β-actin
CCNG1 expression (6 hours): 6161.69 molecules/10^6 β-actin
CDC2 expression (6 hours): 1650.84 molecules/10^6 β-actin
CDC25C expression (6 hours): 606.06 molecules/10^6 β-actin
CDK7 expression (6 hours): 778.75 molecules/10^6 β-actin
CDK8 expression (6 hours): 354.76 molecules/10^6 β-actin
CDKN1A expression (6 hours): 27.06 molecules/10^6 β-actin
CDKN1B expression (6 hours): 390.76 molecules/10^6 β-actin
CDKN2A expression (6 hours): 5611.87 molecules/10^6 β-actin
CDKN2C expression (6 hours): 781.31 molecules/10^6 β-actin
DAP expression (6 hours): 12572.87 molecules/10^6 β-actin
E2F4 expression (6 hours): 1285.78 molecules/10^6 β-actin
E2F5 expression (6 hours): 243.27 molecules/10^6 β-actin
JUN expression (6 hours): 4168.04 molecules/10^6 β-actin
MAD expression (6 hours): 763.05 molecules/10^6 β-actin
MAP3K14 expression (6 hours): 68.69 molecules/10^6 β-actin
MYC expression (6 hours): 2650.11 molecules/10^6 β-actin
NFKB1 expression (6 hours): 3274.07 molecules/10^6 β-actin
PCNA expression (6 hours): 6433.1 molecules/10^6 β-actin
PTGS2 expression (6 hours): 157.43 molecules/10^6 β-actin
RB1 expression (6 hours): 5973.3 molecules/10^6 β-actin
RBL2 expression (6 hours): 2112.09 molecules/10^6 β-actin
TGFBR2 expression (6 hours): 2582.67 molecules/10^6 β-actin
TGIF expression (6 hours): 8002.87 molecules/10^6 β-actin
TNFAIP1 expression (6 hours): 7127.73 molecules/10^6 β-actin
TNFRSF1A expression (6 hours): 20.58 molecules/10^6 β-actin
TNFSF10 expression (6 hours): 532.07 molecules/10^6 β-actin
TP53 expression (6 hours): 1005.63 molecules/10^6 β-actin
TRAF4 expression (6 hours): 91.86 molecules/10^6 β-actin
BCL2L1 expression (12 hours): 23160.22 molecules/10^6 β-actin
BCL2 expression (12 hours): 122.24 molecules/10^6 β-actin
CASP1 expression (12 hours): 113.28 molecules/10^6 β-actin
CCNA2 expression (12 hours): 211.27 molecules/10^6 β-actin
CCND3 expression (12 hours): 137.33 molecules/10^6 β-actin
CCNE1 expression (12 hours): 48.10 molecules/10^6 β-actin
CCNG1 expression (12 hours): 9794.14 molecules/10^6 β-actin
CDC2 expression (12 hours): 1566.64 molecules/10^6 β-actin
CDC25C expression (12 hours): 779.22 molecules/10^6 β-actin
CDK7 expression (12 hours): 2551.62 molecules/10^6 β-actin
CDK8 expression (12 hours): 605.61 molecules/10^6 β-actin
CDKN1A expression (12 hours): 129.69 molecules/10^6 β-actin
CDKN1B expression (12 hours): 310.81 molecules/10^6 β-actin
CDKN2A expression (12 hours): 403.27 molecules/10^6 β-actin
CDKN2C expression (12 hours): 770.42 molecules/10^6 β-actin
DAP expression (12 hours): 38087.74 molecules/10^6 β-actin
E2F4 expression (12 hours): 1673.69 molecules/10^6 β-actin
E2F5 expression (12 hours): 486.8 molecules/10^6 β-actin
JUN expression (12 hours): 5419.7 molecules/10^6 β-actin
MAD expression (12 hours): 7122.48 molecules/10^6 β-actin
MAP3K14 expression (12 hours): 158.89 molecules/10^6 β-actin
MYC expression (12 hours): 5205.65 molecules/10^6 β-actin
NFKB1 expression (12 hours): 6131.17 molecules/10^6 β-actin
PCNA expression (12 hours): 5756.09 molecules/10^6 β-actin
PTGS2 expression (12 hours): 2138.52 molecules/10^6 β-actin
RB1 expression (12 hours): 3301.83 molecules/10^6 β-actin
RBL2 expression (12 hours): 2698.44 molecules/10^6 β-actin
TGFBR2 expression (12 hours): 6799.19 molecules/10^6 β-actin
TGIF expression (12 hours): 13858.11 molecules/10^6 β-actin
TNFAIP1 expression (12 hours): 22572.81 molecules/10^6 β-actin
TNFRSF1A expression (12 hours): 107.17 molecules/10^6 β-actin
TNFSF10 expression (12 hours): 288.01 molecules/10^6 β-actin
TP53 expression (12 hours): 1663.37 molecules/10^6 β-actin
TRAF4 expression (12 hours): 222.84 molecules/10^6 β-actin
BCL2L1 expression (24 hours): 30504.02 molecules/10^6 β-actin
BCL2 expression (24 hours): 35.99 molecules/10^6 β-actin
CASP1 expression (24 hours): 142.49 molecules/10^6 β-actin
CCNA2 expression (24 hours): 241.1 molecules/10^6 β-actin
CCND3 expression (24 hours): 404.3 molecules/10^6 β-actin
CCNE1 expression (24 hours): 47.28 molecules/10^6 β-actin
CCNG1 expression (24 hours): 17499.15 molecules/10^6 β-actin
CDC2 expression (24 hours): 2054.95 molecules/10^6 β-actin
CDC25C expression (24 hours): 326.46 molecules/10^6 β-actin
CDK7 expression (24 hours): 9983.36 molecules/10^6 β-actin
CDK8 expression (24 hours): 1706.26 molecules/10^6 β-actin
CDKN1A expression (24 hours): 225.4 molecules/10^6 β-actin
CDKN1B expression (24 hours): 2092.37 molecules/10^6 β-actin
CDKN2A expression (24 hours): 163.48 molecules/10^6 β-actin
CDKN2C expression (24 hours): 904.8 molecules/10^6 β-actin
DAP expression (24 hours): 56353.65 molecules/10^6 β-actin
E2F4 expression (24 hours): 1582.79 molecules/10^6 β-actin
E2F5 expression (24 hours): 1178.84 molecules/10^6 β-actin
JUN expression (24 hours): 8677.27 molecules/10^6 β-actin
MAD expression (24 hours): 13204.24 molecules/10^6 β-actin
MAP3K14 expression (24 hours): 143.47 molecules/10^6 β-actin
MYC expression (24 hours): 11117.04 molecules/10^6 β-actin
NFKB1 expression (24 hours): 16919.99 molecules/10^6 β-actin
PCNA expression (24 hours): 12795.59 molecules/10^6 β-actin
PTGS2 expression (24 hours): 19413.37 molecules/10^6 β-actin
RB1 expression (24 hours): 5935.72 molecules/10^6 β-actin
RBL2 expression (24 hours): 8604.92 molecules/10^6 β-actin
TGFBR2 expression (24 hours): 15367.23 molecules/10^6 β-actin
TGIF expression (24 hours): 15445.36 molecules/10^6 β-actin
TNFAIP1 expression (24 hours): 39858.96 molecules/10^6 β-actin
TNFRSF1A expression (24 hours): 26.61 molecules/10^6 β-actin
TNFSF10 expression (24 hours): 151.09 molecules/10^6 β-actin
TP53 expression (24 hours): 4238.06 molecules/10^6 β-actin
TRAF4 expression (24 hours): 242.44 molecules/10^6 β-actin
BCL2L1 expression (48 hours): 21299.99 molecules/10^6 β-actin
BCL2 expression (48 hours): 22.29 molecules/10^6 β-actin
CASP1 expression (48 hours): 184.55 molecules/10^6 β-actin
CCNA2 expression (48 hours): 137.61 molecules/10^6 β-actin
CCND3 expression (48 hours): 641.75 molecules/10^6 β-actin
CCNE1 expression (48 hours): 146.61 molecules/10^6 β-actin
CCNG1 expression (48 hours): 25388.52 molecules/10^6 β-actin
CDC2 expression (48 hours): 497.44 molecules/10^6 β-actin
CDC25C expression (48 hours): 68.37 molecules/10^6 β-actin
CDK7 expression (48 hours): 19212.16 molecules/10^6 β-actin
CDK8 expression (48 hours): 3052.4 molecules/10^6 β-actin
CDKN1A expression (48 hours): 288.56 molecules/10^6 β-actin
CDKN1B expression (48 hours): 414.6 molecules/10^6 β-actin
CDKN2A expression (48 hours): 3382.09 molecules/10^6 β-actin
CDKN2C expression (48 hours): 650.26 molecules/10^6 β-actin
DAP expression (48 hours): 70325.95 molecules/10^6 β-actin
E2F4 expression (48 hours): 3738.46 molecules/10^6 β-actin
E2F5 expression (48 hours): 2144.23 molecules/10^6 β-actin
JUN expression (48 hours): 9510.55 molecules/10^6 β-actin
MAD expression (48 hours): 12999.27 molecules/10^6 β-actin
MAP3K14 expression (48 hours): 720.55 molecules/10^6 β-actin
MYC expression (48 hours): 8944.84 molecules/10^6 β-actin
NFKB1 expression (48 hours): 26524.38 molecules/10^6 β-actin
PCNA expression (48 hours): 6913.72 molecules/10^6 β-actin
PTGS2 expression (48 hours): 26516.88 molecules/10^6 β-actin
RB1 expression (48 hours): 6552.57 molecules/10^6 β-actin
RBL2 expression (48 hours): 11571.33 molecules/10^6 β-actin
TGFBR2 expression (48 hours): 5072 molecules/10^6 β-actin
TGIF expression (48 hours): 19849.69 molecules/10^6 β-actin
TNFAIP1 expression (48 hours): 49955.6 molecules/10^6 β-actin
TNFRSF1A expression (48 hours): 21.29 molecules/10^6 β-actin
TNFSF10 expression (48 hours): 79.65 molecules/10^6 β-actin
TP53 expression (48 hours): 2821 molecules/10^6 β-actin
TRAF4 expression (48 hours): 298.28 molecules/10^6 β-actin
